Numbers after ± are expanded uncertainties.
Key:
[1] = 101.3 kPa, Liquid; for viscosity: Capillary tube (Ostwald / Ubbelohde) method; for mass density: Vibrating tube method
[2] = xn = mol fraction of the nth substance listed; conditions: 101.3 kPa, Liquid, x2 = 0; for viscosity: Capillary tube (Ostwald / Ubbelohde) method; for mass density: Vibrating tube method

Row | viscosity ([1]; 318.65 K) [mPa·s] | mass density ([1]; 318.65 K) [kg/m3] | viscosity ([1]; 323.15 K) [mPa·s] | mass density ([1]; 323.15 K) [kg/m3] | viscosity ([1]; 333.15 K) [mPa·s] | mass density ([1]; 333.15 K) [kg/m3] | viscosity ([1]; 343.15 K) [mPa·s] | mass density ([1]; 343.15 K) [kg/m3] | viscosity ([1]; 298.15 K) [mPa·s] | viscosity ([1]; 313.15 K) [mPa·s] | viscosity ([2]; 298.15 K) [mPa·s] | viscosity ([2]; 313.15 K) [mPa·s] | viscosity ([2]; 318.65 K) [mPa·s] | viscosity ([2]; 323.15 K) [mPa·s] | mass density ([2]; 323.15 K) [kg/m3] | viscosity ([2]; 333.15 K) [mPa·s] | mass density ([2]; 333.15 K) [kg/m3] | viscosity ([2]; 343.15 K) [mPa·s] | mass density ([2]; 343.15 K) [kg/m3] | SMILES
1 | 186.6 ± 4.6 | 988.22 ± 1 | 125.7 ± 2.3 | 984.9 ± 1 | 57.99 ± 0.62 | 977.3 ± 1 | 29.55 ± 0.33 | 969.58 ± 0.99 | – | – | – | – | – | – | – | – | – | – | – | CC(O)CNCC(C)O (stereo unspecified) [N-(2-hydroxypropyl)-2-hydroxy-1-propanamine]
2 | 0.595 ± 0.004 | – | 0.547 ± 0.004 | 988.04 ± 0.08 | 0.466 ± 0.003 | 983.12 ± 0.08 | 0.405 ± 0.003 | 977.77 ± 0.08 | 0.89 ± 0.006 | 0.653 ± 0.004 | – | – | – | – | – | – | – | – | – | O [water]
3 | – | – | – | – | – | – | – | – | – | – | 0.89 ± 0.006 | 0.653 ± 0.004 | 0.595 ± 0.004 | 0.547 ± 0.004 | 988.04 ± 0.08 | 0.466 ± 0.003 | 983.12 ± 0.08 | 0.405 ± 0.003 | 977.77 ± 0.08 | O [water] + CC(O)CNCC(C)O

— the NIST ThermoML archive (doi:10.1021/je030132i)
